Key:
brain hippocampus = assay: Histopathological examination of the brain hippocampus in TLE rats; type: in vivo; details: H&E, Fig. 12
Description: Temporal lobe epilepsy (TLE) was induced in rats using the pilocarpine model according to the method of […] et al.. Prior to the experiment, rats were housed in plastic cages at October University for Modern Science and Arts under controlled environmental conditions (temperatures of 25°±3°C and 50% humidity) with free access to water and softened standard pellet chow. The rats were injected with pilocarpine (300 mg/kg; i.p.) to induce status epilepticus (SE). Atropine (1 mg/kg; i.p.) was injected 30 minutes before pilocarpine injection to antagonize the peripheral muscarinic activity. SE was defined using the modified Racine scale by observing seizure severity categorized as stages 4 and 5. […] The SE seizures were left to last for 3 hours to induce hippocampus damage, after which diazepam (10 mg/kg; i.p.) was injected to attenuate the seizures. Lubricant ophthalmic gel was applied with a cotton swab to each eye to prevent the corneas from drying out during the seizures. The rats were hydrated with sterile Ringer's lactate injections (1 mL, i.p.) for 3 days post-SE induction. Animal welfare assessments were conducted multiple times per day for several days after the induction of SE. […]

[1] = set-up: method as in PMID 10837713; details: following systemic absorption; cited from earlier work
[2] = In vitro drug release, Franz diffusion cell with dialysis bag; type: physicochemical; details: PBS pH 7.4, 37 ± 0.5 °C
Description: The in vitro release study utilized a Franz diffusion cell with a diffusion area of 1.77 cm^2 [44]. The receptor compartment contained 7.5 ml phosphate buffer (PBS) pH 7.4, simulating the pH at the release site in the brain [45, 46], and the system was equilibrated at 37 ± 0.5 °C by a circulating water jacket. […] At certain time intervals (0, 0.25, 0.5, 0.75, 1, 2, 4, 8, 12, 24, 36, 48, and 72 h), 0.5 ml samples were aliquoted from the receptor compartment and replaced with equal volumes of fresh medium to maintain a constant volume. Samples were filtered using a 0.22 μm filter and analyzed spectrophotometrically as previously described. In order to understand the barrier presented by the dialysis membrane, the in vitro release study of unformulated ZNS (free drug) solution in distilled water of the same concentration (1mg/ml w/v) was carried out similarly in a separate setup, all release experiments were done in triplicates, and the release data were fitted to various release kinetic models: zero, first, Higuchi diffusion, and Hixson–Crowell and Korsmeyer–Peppas models.

LncRNA PVT-1 = assay: Hippocampal LncRNA PVT-1 expression by quantitative RT-PCR in TLE rats; type: in vivo; details: relative quantitation 2-∆∆Ct; TLE control 5.7 folds of normal rats
Description: Temporal lobe epilepsy (TLE) was induced in rats using the pilocarpine model according to the method of […] et al.. Prior to the experiment, rats were housed in plastic cages at October University for Modern Science and Arts under controlled environmental conditions (temperatures of 25°±3°C and 50% humidity) with free access to water and softened standard pellet chow. The rats were injected with pilocarpine (300 mg/kg; i.p.) to induce status epilepticus (SE). Atropine (1 mg/kg; i.p.) was injected 30 minutes before pilocarpine injection to antagonize the peripheral muscarinic activity. SE was defined using the modified Racine scale by observing seizure severity categorized as stages 4 and 5. […] For quantitative RT-PCR analysis of miR-199, Sirtuin 1 (Sirt-1) and long non-coding RNA of plasmacytoma variant translocation1 (LncRNA PVT-1), RNA was isolated from the brain hippocampus tissue with direct-zol RNA Miniprep Plus (CAT no. R2072) and reverse-transcribed into cDNA with the reverse transcriptase (CAT no. 12594100) according to the manufacturer instructions. […] Quantitative reverse transcriptase PCR was performed using a Power SYBR Green PCR Master Mix (CFX96 Instrument; Bio-Rad, USA). The relative quantitation (RQ) of each target gene is quantified according to the 2-ΔΔCt method calculation.

NS(=O)(=O)Cc1noc2ccccc12 [ZNS, Zonisamide]
hippocampal histopathology, result in words (brain hippocampus): noticeable neuroprotective efficacy | Oldendorf Brain Uptake Index [1]: 28% | ZNS released in 2 hours [2]: 96.9±2.1% | hippocampal level of LncRNA-PVT1 (LncRNA PVT-1): 3.4 folds
